The target of assay [1] is WDR5 protein (22-334aa) with MLL1 polypeptide (3672-3773aa) (Homo sapiens, UniProt P61964). Description: WDR5-MLL PPI inhibitory activity test (HTRF). In kind it is binding. The settings on record: His-tagged WDR5 and biotin-tagged MLL1 polypeptide. An excerpt: Test Example 1: WDR5-MLL PPI Inhibitory Activity Test
Effect of the compounds on WDR5 (WD Repeat Domain 5) and MLL1 (mixed-lineage leukemia 1) peptides at molecular level.
The effect of the compound on the interaction of WDR5 protein (22-334aa) with MLL1 polypeptide (3672-3773aa) was detected by HTRF (Homogeneous Time-Resolved Fluorescence) technology. When the N-terminal His-tagged WDR5 recognized by the Anti-6His-Eu cryptate donor interacts with the biotin-tagged MLL1 polypeptide recognized by the streptavidin-APC receptor, the donor and acceptor are pulled close enough to produce fluorescence resonance energy transfer (FRET). […] Therefore, the decrease in FRET signal can reflect the compound's inhibition on the interaction of WDR5 with MLL1 polypeptide.
The compound to be tested was diluted 3-fold with DMSO. […] Then the compound was diluted with reaction buffer (25 mM HEPES pH=7.5, 100 mM NaCl, 0.05% Tween 20) to control the final concentration of DMSO at 0.5%. In a 384-well plate, 1 μL of compound and 3 μL of 42 nM WDR5 protein were added, centrifuged at 1000 rpm for 1 min, incubated at room temperature for 60 min, followed by adding 3 μL of 333 nM MLL1 polypeptide with incubation at room temperature for 10 min, and followed by adding 3 μL of a mixed liquid of Anti-6His-Eu cryptate and streptavidin-APC with centrifugation at 1000 rpm for 1 mi and incubation at room temperature protected from light for 60 min, using a multifunction microplate reader (EnVision®2105) to read the signal. The following controls were set up per plate: control group (1 μL with 5% DMSO reaction buffer, 3 μL of 42 nM WDR5, 3 μL of MLL1 polypeptide, 3 μL of Anti-6His-Eu cryptate and streptavidin-APC). Blank group (1 μL reaction buffer with 5% DMSO, 3 μL reaction buffer, 3 μL MLL1 polypeptide, 3 μL Anti-6His-Eu cryptate and streptavidin-APC). The test data was calculated according to the signal ratio of two beams of fluorescence at different wavelengths: (665 nm signal/620 nm signal)*10000. […] The IC50 value was calculated using XLfit software.

Another assay relates to MV4-11 cells. Description: MV4-11 cell proliferation inhibition experiment (CellTiter-Glo). The format is cell-based. The settings on record: 6 days, read-out: cell proliferation inhibitory activity. How it is done: Test Example 2: MV4-11 Cell (ATCC: CRL-9591) Proliferation Inhibition Experiment
ATP in living cells was quantitatively detected by CellTiter-Glo (Promega-G7573) Luminescence Cell Viability Assay Kit to determine the effect of the compounds to be tested on cell proliferation. • Step 1: MV4-11 cells were seeded in 96-well plates (Greiner-655098) at a density of 1,500 cells per well with a volume of 140 μL per well; Cell culture medium components included RPM11640 (Gibco-A10491-01)+10% FBS (Gibco-10099-141C)+1% Penicillin-Streptomycin (5,000 U/mL, Gibco-15070-063). • Step 2: On the day of cell seeding, the cells were treated with the compound to be tested. The compound to be tested was diluted with a 3-fold gradient, and a total of 9 concentration gradients were set. DMSO (Sigma, D2650) with 0.5% final concentration or a DMSO solution containing the compound to be tested was added per well with 2 or 3 replicate wells at each concentration point. The plates were incubated at 37° C. in a 5% CO2 incubator (Thermo Scientific Steri-Cycle 371) for 6 days. • Step 3: The cell viability in the control and treatment groups was detected with CellTiter-Glo Luminescent Cell Viability Assay Kit. 50 μL of CellTiter-Glo was added per well, mixed well, and incubated for 15 min at room temperature protected from light. According to the kit instructions, the chemiluminescence signal was read using a multifunctional microplate reader (EnVision, PerkinElmer).
The inhibition percentage (%) of the compound at each concentration point was calculated by the following formula:
Inhibition Percentage (%)=(1−signal value of the group treated with the compound/signal value of the group treated with DMSO)*100.
The value of cell proliferation semi-inhibitory concentration IC50 was calculated using GraphPad Prism software, and the results are shown in Table 2.

Counter-ions that a name gives are not always drawn. Like-named read-outs stand apart in the source and are kept apart here. Where only a bound is given, the exact number is not on record here.

With `CCOc1cc(C(C)N2CC3(CC3(F)F)c3c(CN(C)C)cc(Cn4ccnc4NC)cc3C2=O)ncc1F` (single isomer, unassigned) [Compound 89], the IC50 in assay [1] is under 20 nM; in the assay with MV4-11 cells, under 50 nM.
Turning to `CCOc1cc([C@H](C)N2C[C@@]3(CC3(F)F)c3c(CN4CCN(C)CC4)cc(Cn4ccnc4NC)cc3C2=O)ncc1F` (single isomer, unassigned) [Compound 92, 2′-(-1-(4-ethoxy-5-fluoropyridine-2-yl)ethyl)-2,2-difluoro-7′-((2-(methylamino)-1H-imidazol-1-yl)methyl)-5′-((4-methylpiperazin-1-yl)methyl)-2′,3′-dihydro-1′H-spiro[cyclopropan-1,4′-isoquinoline]-1′-one formate salt], the IC50 in assay [1] was under 20 nM; in the assay on MV4-11 cells (Homo sapiens, 144 h), 50 to 200 nM.
For `CCOc1cc([C@@H](C)N2C[C@@]3(CC3(F)F)c3c(CN4CCN(C)CC4)cc(Cn4ccnc4NC)cc3C2=O)ncc1F` (stereo in doubt) [Compound 93, 2′-(-1-(4-ethoxy-5-fluoropyridine-2-yl)ethyl)-2,2-difluoro-7′-((2-(methylamino)-1H-imidazol-1-yl)methyl)-5′-((4-methylpiperazin-1-yl)methyl)-2′,3′-dihydro-1′H-spiro[cyclopropan-1,4′-isoquinoline]-1′-one formate salt], in that order: under 20 nM and under 50 nM.
For `CCOc1cc([C@H](C)N2CC3(CC3(F)F)c3c(CN(C)C)cc(Cn4ccnc4NC)cc3C2=O)ncc1C#N` (stereo in doubt) [Compound 95, 6-(-1-(5′-((dimethylamino)methyl)-2,2-difluoro-7′-((2-(methylamino)-1H-imidazol-1-yl)methyl)-1′-one-1′H-spiro[cyclopropan-1,4′-isoquinoline]-2′(3′H)-yl)ethyl)-4-ethoxynicotinonitrileformate salt], the IC50 in assay [1] is under 20 nM; with MV4-11 cells (Homo sapiens, 144 h) it was under 50 nM.
`CCOc1cc([C@@H](C)N2C[C@]3(CC3(F)F)c3c(CN(C)C)cc(Cn4ccnc4NC)cc3C2=O)ncc1F` (stereo in doubt) [Compound 96, (S)-5′-((dimethylamino)methyl)-2′-((R)-1-(4-ethoxy-5-fluoropyridine-2-yl)ethyl)-2,2-difluoro-7′-((2-(methylamino)-1H imidazol-1-yl)methyl)-2′, 3′-dihydro-1′H-spiro[cyclopropan-1,4′-isoquinoline]-1′-one]: the IC50 in assay [1] was under 20 nM; in the assay on MV4-11 cells (Homo sapiens, 144 h) it was under 50 nM.
As for `CNc1nccn1Cc1cc(CN(C)C)c2c(c1)C(=O)N([C@@H](C)c1cc(OC)c(C#N)cn1)CC21CC1` [Compound 2], the IC50 in assay [1] is under 20 nM; in the assay with MV4-11 cells (Homo sapiens, 144 h) it was 50 to 200 nM.
As for `CCOc1cc([C@H](C)N2CC3(CC3)c3c(CN(C)C)cc(Cn4ccnc4NC)cc3C2=O)ncc1C#N` [Compound 3], the IC50 in assay [1] is under 20 nM; in the assay with MV4-11 cells (Homo sapiens, 144 h), under 50 nM.
On the same counts, the results for `CNc1nccn1Cc1cc(CN(C)C)c2c(c1)C(=O)N([C@@H](C)c1cnc(F)c(OC)c1)CC21CC1` [Compound 4] are under 20 nM and under 50 nM.
Regarding `CNc1nccn1Cc1cc(CN(C)C)c2c(c1)C(=O)N([C@@H](C)c1cc(OC)c(F)cn1)CC21CC1` [Compound 5], the IC50 in assay [1] is under 20 nM; in the assay with MV4-11 cells (Homo sapiens, 144 h), under 50 nM.
`CCOc1cc([C@H](C)N2CC3(CC3)c3c(CN4CCOCC4)cc(Cn4ccnc4NC)cc3C2=O)ncc1F` [Compound 8]: the IC50 was under 20 nM in assay [1] and 50 to 200 nM in the assay on MV4-11 cells (Homo sapiens, 144 h).
Turning to `CCOc1cc([C@H](C)N2CC3(CC3)c3c(CN(CC)CC)cc(Cn4ccnc4NC)cc3C2=O)ncc1F` [Compound 10, (S)-5′-(diethylamino)methyl)-2′-(1-(4-ethoxy-5-fluoropyridine-2-ylethyl)-7′-((2-(methylamino)-1H-imidazol-1-yl)methyl)-2′,3′-dihydro-1′H-spiro[cyclopropan-1,4′-isoquinoline]-1′-one], the IC50 was under 20 nM in assay [1] and 50 to 200 nM in the assay on MV4-11 cells (Homo sapiens, 144 h).
In the case of `CNc1nccn1Cc1cc(CN(C)C)c2c(c1)C(=O)N([C@@H](C)c1cc(OC3CC3)c(F)cn1)CC21CC1` [Compound 14], the IC50 in assay [1] is under 20 nM; in the assay with MV4-11 cells (Homo sapiens, 144 h), 50 to 200 nM.
On to `CCOc1cc([C@H](C)N2CC3(CCC3)c3c(CN(C)C)cc(Cn4ccnc4NC)cc3C2=O)ncc1F` [Compound 18, (S)-5′-((dimethylamino)methyl)-2′-(1-(4-ethoxy-5-fluoropyridine-2-yl)ethyl)-7′-((2-(methylamino)-1H-imidazol-1-yl)methyl)-2′,3′-dihydro-1′H-spiro[cyclobutan-1,4′-isoquinoline]-1′-one], for which the IC50 in assay [1] is under 20 nM; in the assay on MV4-11 cells (Homo sapiens, 144 h), 50 to 200 nM.
As for `CCOc1cc([C@H](C)N2CC3(CCCC3)c3c(CN(C)C)cc(Cn4ccnc4NC)cc3C2=O)ncc1F` [Compound 19, (S)-5′-((dimethylamino)methyl)-2′-(1-(4-ethoxy-5-fluoropyridine-2-yl)ethyl)-7′-((2-(methylamino)-1H-imidazol-1-yl)methyl)-2′,3′-dihydro-1′H-spiro[cyclopentan-1,4′-isoquinoline]-1′-one], the IC50 in assay [1] was under 20 nM; in the assay on MV4-11 cells (Homo sapiens, 144 h), under 50 nM.
For `CCOc1cc([C@H](C)N2CC3(CC3)c3c(CN4CCN(C)CC4)cc(Cn4ccnc4NC)cc3C2=O)ncc1F` [Compound 37], in that order: under 20 nM and under 50 nM.
For the molecule `CCOc1cc(C(C)N2CC3(CC3)c3c(CN(C)CC(F)(F)F)cc(Cn4ccnc4NC)cc3C2=O)ncc1F` (stereo not drawn) [Compound 41, 2′-(1-(4-ethoxy-5-fluoropyridine-2-yl)ethyl)-5′-((methyl(2,2,2-trifluoroethyl)amino)methyl)-7′-((2-(methylamino)-1H-imidazol-1-yl)methyl)-2′,3′-dihydro-1′H-spiro[cyclopropan-1,4′-isoquinoline]-1′-one], the IC50 in assay [1] was in the range of 20 to 100 nM; in the assay with MV4-11 cells (Homo sapiens, 144 h) it was 50 to 200 nM.
With `CNc1nccn1Cc1cc(CN(C)C)c2c(c1)C(=O)N([C@@H](C)c1cc(OC(F)F)c(F)cn1)CC21CC1` [Compound 55], the IC50 was under 20 nM in assay [1] and 50 to 200 nM with MV4-11 cells (Homo sapiens, 144 h).
In the case of `CCOc1cc([C@H](C)N2CC3(CC3)c3c(CN4CCN(CC)CC4)cc(Cn4ccnc4NC)cc3C2=O)ncc1F` [Compound 57], the IC50 in assay [1] was under 20 nM; in the assay on MV4-11 cells (Homo sapiens, 144 h) it was under 50 nM.
In the case of `CCOc1cc([C@H](C)N2CC3(CC3)c3c(CN4CCOCC4)cc(Cn4ccnc4NC)cc3C2=O)ncc1C#N` [Compound 59], the IC50 in assay [1] is under 20 nM; in the assay on MV4-11 cells (Homo sapiens, 144 h) it was under 50 nM.
On the same counts, the results for `CNc1nccn1Cc1cc(CN2CC(F)(F)C2)c2c(c1)C(=O)N([C@@H](C)c1cc(OC)c(C#N)cn1)CC21CC1` [Compound 61] are under 20 nM and 50 to 200 nM.
Regarding `CCOc1cc([C@H](C)N2CC3(CC3)c3c(CN4CCN(CC(F)(F)F)CC4)cc(Cn4ccnc4NC)cc3C2=O)ncc1C#N` [Compound 63, (S)-4-ethoxy-6-(1-(7′-((2-(methylamino)-1H-imidazol-1-yl)methyl)-1′-one-5′-((4-(2,2,2-trifluoroethyl)piperazin-1-yl)methyl)-1′H-spiro[cyclopropan-1,4′-isoquinoline]-2′(3′H)-yl)ethyl)nicotinonitrile], the IC50 in assay [1] was under 20 nM; with MV4-11 cells (Homo sapiens, 144 h), 50 to 200 nM.

Source of the values: patent US20240101535A1, “DIHYDROISOQUINOLINONE DERIVATIVE AND APPLICATION THEREOF” (ETERN BIOPHARMA (SHANGHAI) CO., LTD., priority 2020, published 2024).
